{"source": "patent US11963962B2", "about": "“Platelet count-agnostic methods of treating myelofibrosis” (Sierra Oncology, Inc., priority 2018, dated 2024)", "key": {"myelofibrosis [1]": {"tested_on": "myelofibrosis", "test": "SIMPLIFY-1 Phase 3 trial: transfusion independence and TD to TI conversion", "assay_type": "in vivo, human", "details": "SIMPLIFY 1", "from_the_text": "The improved outcome from MMB therapy that results from practicing the subject methods can be manifested as an improvement in one or more clinical endpoints (e.g., as described herein), such as anemia response, in spleen response and/or symptom response. By “anemia response” is meant an increase in the patient's hemoglobin level or a patient who was transfusion dependent becoming transfusion independent. Desirably, a minimum increase in hemoglobin of 0.5 g/dL, such as 1.0 g/dL 1.5 g/dL or 2.0 g/dL lasting a minimum of 8 weeks is achieved, which is the level of improvement specified in the International Working Group (IWG) consensus criteria. However, smaller, but still medically significant, increases in hemoglobin are also considered to be within the term “anemia response”. “Transfusion independence” is an anemia endpoint and refers to a subject who required no RBC transfusions over a 12 week period and had no hemoglobin levels less than 8 g/dL to 8.5 g/dL over the 12 week period. In some embodiments, the 12 week period of transfusion independence is the terminal 12 weeks of a 24 week study period. By red blood cell (RBC) transfusion independence rate at week 24 of a study is meant the proportion of subjects who were transfusion independent at week 24, excluding cases associated with clinically overt bleeding.\n(§1) In the SIMPLIFY-1 trial (NCT01969838), the efficacy and safety of MMB versus ruxolitinib (RUX) was studied in patients with myelofibrosis who were naïve to treatment with a JAK inhibitor and a platelet count of ≥50×10^9/L. Patients (N=432) with high risk or intermediate-2 risk or symptomatic intermediate-1 risk myelofibrosis received 24 weeks of treatment with 200 mg MMB once daily or 20 mg RUX twice a day (or per label), after which all patients could receive open-label momelotinib. […] The primary endpoint was a reduction by at least 35% in the spleen volume at 24 weeks compared with baseline.\n(§2) FIG. 8A: SIMPLIFY-1 study of MMB in a first line population previously untreated with JAKi. For SIMPLIFY-1, the goal was non-inferiority over ruxolitinib (RUX) (MMB: N=215 subjects, and RUX: N=217 subjects). FIG. 8B: SIMPLIFY-2 study of second line population of anemic or thrombocytopenic subjects previously treated with RUX (red blood cell (RBC) transfusions on RUX=64%. RUX dose adjustment for: thrombocytopenia=21%; anemia/hematoma=35%). For SIMPLIFY-2, the goal was superiority over best available treatment (BAT) (MMB: N=104 subjects, and BAT: N=52 subjects). In both SIMPLIFY-1 and SIMPLIFY: Primary endpoint: >=35% reduction in spleen volume at 24 weeks. Secondary endpoints: Total symptom score (TSS) response at 24 weeks. Effects on RBC transfusion requirements.\n(§3) The SIMPLIFY 1 clinical trial data was reanalyzed for subgroups of subjects having particular baseline platelet counts in the MMB versus RUX arms of the study.\n(§4) Patient data was analyzed according to the following baseline platelet count (PLT) subgroups and in particular according to the threshold PLT of 150×10^9/L: 1) PLT<50×10^9/L; 2) 50×10^9/L≤PLT<100×10^9/L; 3) 100×10^9/L≤PLT<150×10^9/L. The reanalyzed data is presented in Table 13 (SIMPLIFY 1). Selected data is also illustrated in the following figures."}, "myelofibrosis [2]": {"tested_on": "myelofibrosis", "test": "SIMPLIFY-1 Phase 3 trial: safety (anemia, platelet counts, hemoglobin)", "assay_type": "in vivo, human", "experimental": "as §1\nThe mean platelet count for RUX patients is demonstrably lower than the mean platelet count for MMB patients.\nThe MMB subjects were thus at lower risk of developing thrombocytopenia (e.g., Grade 3 or 4 thrombocytopenia), or of having to undergo undesirable dose reduction because they were able to largely maintain their platelet counts during therapy."}, "myelofibrosis [3]": {"tested_on": "myelofibrosis", "details": "cited from earlier work"}, "myelofibrosis [4]": {"tested_on": "myelofibrosis", "test": "SIMPLIFY-1 Phase 3 trial: total symptom score (TSS) response at week 24", "assay_type": "in vivo, human", "details": "for TSS response rate: SIMPLIFY 1, week 24", "experimental": "as §1, §2, §3, §4"}, "myelofibrosis [5]": {"tested_on": "myelofibrosis", "test": "SIMPLIFY-1 dynamic and time-to-event analyses of RBC transfusions", "assay_type": "in vivo, human", "details": "SIMPLIFY-1, 24 week randomized treatment period", "from_the_text": "The SIMPLIFY-1 (S1) trial, a double-blind, active-controlled Phase 3 study in which 432 patients received randomized treatment with MMB or RUX for 24 weeks was previously reported (Mesa R A, Kiladjian J J, Catalano J V. et al. “Simplify-1: A phase III randomized trial of momelotinib versus ruxolitinib in j anus kinase inhibitor—naïve patients with myelofibrosis”, Journal of Clinical Oncology, 2017; 35:3844-50).\nSince transfusion burden is of significant concern to clinicians and patients, to better understand the dynamics of RBC transfusions we further examined the S1 data through statistical models utilizing a variety of novel anemia benefit endpoints including time until transfusion and overall intensity of transfusions across time. The proportions of patients with 0 and 4 transfusions were calculated and time-to-event analyses examining time-to-first and time-to-fifth units transfused also conducted. Since transfusions typically comprise 2 units, the fifth unit transfused represents a de facto third transfusion event. The number of units transfused were also considered to be recurrent events and examined with and without patients' baseline characteristics as covariates. Finally, a mixture model, based on a zero-inflated negative binomial (ZINB) distribution fit to the transfusion data, was employed to compare between the treatment groups the proportions of subjects with zero transfusion burden and the mean transfusion rates."}, "myelofibrosis [6]": {"tested_on": "myelofibrosis", "test": "SIMPLIFY-1 Phase 3 trial: splenic response rate (SRR)", "assay_type": "in vivo, human", "details": "SIMPLIFY 1, week 24", "experimental": "as §1, §2, §3, §4"}, "[7]": {"details": "ITT, platelets 50-100 (subgroup 2)"}, "[8]": {"details": "ITT, platelets 100-150 (subgroup 3)"}, "[9]": {"details": "baseline TSS ≥ 6, platelets 50-100 (subgroup 2)"}, "[10]": {"details": "baseline TSS ≥ 6, platelets 100-150 (subgroup 3)"}, "[11]": {"details": "baseline TSS ≥ 10, all patients"}, "[12]": {"details": "baseline TSS ≥ 10, platelets 50-100 (subgroup 2)"}, "[13]": {"details": "baseline TSS ≥ 10, platelets 100-150 (subgroup 3)"}}, "note": "Read-outs that look alike come from different tables or passages of the source. Marks after values point to notes of the source that are not given here."}
{"compound": "N#CC[C@H](C1CCCC1)n1cc(-c2ncnc3[nH]ccc23)cn1", "note": "[RUX, ruxolitinib, reference compound]", "values": [{"measurement": "patients with transfusion independence promoted and maintained (TI rate)", "setting": "myelofibrosis [1]", "result": 49, "unit": "%"}, {"measurement": "Week 24 TI rate", "setting": "myelofibrosis [1]; ITT, all patients", "result": 49, "unit": "%"}, {"measurement": "Week 24 TI rate", "setting": "myelofibrosis [1]; [7]", "result": 39, "unit": "%"}, {"measurement": "Week 24 TI rate", "setting": "myelofibrosis [1]; [8]", "result": 45, "unit": "%*"}, {"measurement": "Week 24 TI rate", "setting": "myelofibrosis [1]; baseline TSS ≥ 6, all patients", "result": 48, "unit": "%"}, {"measurement": "Week 24 TI rate", "setting": "myelofibrosis [1]; [9]", "result": 36, "unit": "%"}, {"measurement": "Week 24 TI rate", "setting": "myelofibrosis [1]; [10]", "result": 41, "unit": "%"}, {"measurement": "Week 24 TI rate", "setting": "myelofibrosis [1]; [11]", "result": 51, "unit": "%"}, {"measurement": "Week 24 TI rate", "setting": "myelofibrosis [1]; [12]", "result": 32, "unit": "%"}, {"measurement": "Week 24 TI rate", "setting": "myelofibrosis [1]; [13]", "result": 45, "unit": "%*"}, {"measurement": "anemia rate", "setting": "myelofibrosis [2]; SIMPLIFY 1", "result": 38, "unit": "%"}, {"measurement": "≥Grade 3 anemia rate", "setting": "myelofibrosis [2]; SIMPLIFY 1", "result": 23, "unit": "%"}, {"measurement": "platelet counts during treatment", "setting": "myelofibrosis [2]; SIMPLIFY 1, 24 week double blind phase, FIGS. 31-33", "result": "significant reductions in platelet counts from baseline"}, {"measurement": "median time to recovery of platelet counts above 50×10^9/L", "setting": "myelofibrosis [3]; after dose reduction or dose interruption", "result": 14, "unit": "days"}, {"measurement": "median time to onset of thrombocytopenia", "setting": "myelofibrosis [3]; patients who developed Grade 3 or 4 thrombocytopenia", "result": "approximately 8 weeks"}, {"measurement": "frequency of Grade 3 or 4 thrombocytopenia", "setting": "myelofibrosis [3]; patients with a platelet count of 100×10^9 to 200×10^9/L before starting ruxolitinib", "result": 17, "unit": "%"}, {"measurement": "frequency of Grade 3 or 4 thrombocytopenia", "setting": "myelofibrosis [3]; patients with an entry platelet count greater than 200×10^9/L", "result": 7, "unit": "%"}, {"measurement": "TSS response rate", "setting": "myelofibrosis [4]; ITT, all patients", "result": 41, "unit": "%"}, {"measurement": "TSS response rate", "setting": "myelofibrosis [4]; [7]", "result": 22, "unit": "%"}, {"measurement": "TSS response rate", "setting": "myelofibrosis [4]; [8]", "result": 39, "unit": "%*"}, {"measurement": "TSS response rate", "setting": "myelofibrosis [4]; baseline TSS ≥ 6, all patients", "result": 42, "unit": "%"}, {"measurement": "TSS response rate", "setting": "myelofibrosis [4]; [9]", "result": 23, "unit": "%"}, {"measurement": "TSS response rate", "setting": "myelofibrosis [4]; [10]", "result": 33, "unit": "%"}, {"measurement": "TSS response rate", "setting": "myelofibrosis [4]; [11]", "result": 43, "unit": "%"}, {"measurement": "TSS response rate", "setting": "myelofibrosis [4]; [12]", "result": 21, "unit": "%"}, {"measurement": "TSS response rate", "setting": "myelofibrosis [4]; [13]", "result": 35, "unit": "%"}, {"measurement": "Total Symptom Score (TSS) response", "setting": "myelofibrosis [4]; SIMPLIFY-1, overall", "result": 42.2, "unit": "%"}, {"measurement": "Kaplan-Meier estimate of the proportion of patients who did not require any units transfused", "setting": "myelofibrosis [5]", "result": 46, "unit": "%"}, {"measurement": "proportion of patients requiring 4 or fewer units", "setting": "myelofibrosis [5]", "result": 62, "unit": "%"}, {"measurement": "SRR", "setting": "myelofibrosis [6]; ITT, all patients", "result": 29, "unit": "%"}, {"measurement": "SRR", "setting": "myelofibrosis [6]; [7]", "result": 0, "unit": "%"}, {"measurement": "SRR", "setting": "myelofibrosis [6]; [8]", "result": 6, "unit": "%"}, {"measurement": "SRR", "setting": "myelofibrosis [6]; baseline TSS ≥ 6, all patients", "result": 29, "unit": "%"}, {"measurement": "SRR", "setting": "myelofibrosis [6]; [9]", "result": 0, "unit": "%"}, {"measurement": "SRR", "setting": "myelofibrosis [6]; [10]", "result": 7, "unit": "%"}, {"measurement": "SRR", "setting": "myelofibrosis [6]; [11]", "result": 29, "unit": "%"}, {"measurement": "SRR", "setting": "myelofibrosis [6]; [12]", "result": 0, "unit": "%"}, {"measurement": "SRR", "setting": "myelofibrosis [6]; [13]", "result": 5, "unit": "%"}]}
